# Test results published in US5994334A, “Androgen synthesis inhibitors” (priority 1997, dated 1999).
# Entries after “also recorded” stand apart in the source; their conditions may differ. Like-named read-outs stand apart in the source and are kept apart here.
# How the values were obtained:
# [1] = target: T1, Human Testicular 17α-Hydroxylase (Homo sapiens, UniProt P05093); test: Inhibition of human testicular 17α-hydroxylase (pregnenolone substrate, testicular microsomes); type: biochemical
# T1 construct: incubating human testicular microsomes; from tissue; host or cells: human testis, microsomes
# T1 sequence (P05093 1-508): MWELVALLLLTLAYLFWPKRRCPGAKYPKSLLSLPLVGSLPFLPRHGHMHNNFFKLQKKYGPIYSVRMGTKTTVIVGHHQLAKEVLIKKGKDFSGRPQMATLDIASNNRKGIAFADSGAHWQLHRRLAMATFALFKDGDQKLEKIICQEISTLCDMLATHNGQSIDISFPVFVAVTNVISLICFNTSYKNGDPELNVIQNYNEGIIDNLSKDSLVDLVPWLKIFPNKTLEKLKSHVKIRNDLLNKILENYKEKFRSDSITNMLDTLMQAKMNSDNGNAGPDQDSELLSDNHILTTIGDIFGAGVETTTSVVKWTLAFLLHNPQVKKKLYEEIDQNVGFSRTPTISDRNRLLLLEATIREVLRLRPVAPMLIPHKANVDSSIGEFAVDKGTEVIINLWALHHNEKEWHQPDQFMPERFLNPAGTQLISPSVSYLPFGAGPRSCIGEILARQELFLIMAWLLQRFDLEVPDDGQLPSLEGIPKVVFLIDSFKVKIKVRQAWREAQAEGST
# Summary of the method: (§1)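 Pregnenolone, the natural human substrate, was supplied radiolabeled to human testicular microsomes in the presence of different inhibitor concentrations. Products were resolved by reverse-phase HPLC, and the two activities were calculated separately from conversion to DHEA (lyase) or to 17α-hydroxypregnenolone and DHEA together (hydroxylase).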
# [2] = test system: LNCaP human prostatic tumors; test: Human prostatic cancer (LNCaP) xenograft in male nude mice; type: in vivo, human (LNCaP) tumors in BALB/c male athymic mice
# Method: We have reported that inoculation of MCF-7 breast cancer cells in Matrigel increases mammary tumor formation in nude mice (Yue et al., 1994). The same procedure was therefore utilized to develop tumors from human prostatic cancer cells (LNCAP) in male nude mice. BALB/c male athymic mice, 4-6 weeks old, were inoculated sc with LNCaP cells suspended in Matrigel (10 mg/ml). Four sites per mouse were injected with 1.8×10^6 cells in 0.1 ml Matrigel. Treatment began when the tumor reached about 100 mm^3 in volume. Tumors were measured before the treatment began and once a week during treatment. Tumor volume was calculated by the formula 4/3πr1^2 r2 (r1 <r2).At the end of treatment, the mice were sacrificed and individual tumors were weighed. The latency of tumor development was 30-40 days and overall tumorigenicity was 82%.
# In a further experiment, two mice were treated with I-16 (1 mg/mouse/day, s.c.) beginning 45 days after cell inoculation. Two mice received vehicle as controls. […] The mean tumor weight was 198.78±72 mg in I-16 treated mice compared to 386.3±147.2 mg in the control group. In other experiments, I-47 and I-49 were effective in controlling tumor growth. The total tumor volume of the control mice increased to 884.0% of the initial volume.
# [3] = test system: human prostatic tissue (BPH or prostate cancer); test: Prostate tissue in histoculture, DNA synthesis ([3H]-thymidine uptake); details: inhibitor 1 μM
# Method: We recently developed a histoculture method to evaluate the growth inhibiting properties of the compounds on human prostatic tissue. […] The tissue samples were then incubated for 3 days in fresh medium/treatment containing 2 μCi/ml [^3 H]-thymidine. Tissue was then digested and DNA extracted. For each sample, [^3 H]-thymidine uptake was normalized to DNA content. […] This finding is consistent with the compound acting as an antiandrogen. None of the compounds produced an independent effect on DNA synthesis in the absence of added androgens.
# [4] = test system: mutant AR which is expressed in LNCaP cells; test: Androgen receptor-mediated gene transcription, mutant AR of LNCaP cells (luciferase, CV1 cells); type: cell-based, human
# [5] = target: human androgen receptor (AR) (Homo sapiens, UniProt P10275); test: Androgen receptor-mediated gene transcription, wild-type AR (luciferase, CV1 cells); type: cell-based; details: against DHT stimulation
# human androgen receptor (AR), sequence (P10275 whole entry): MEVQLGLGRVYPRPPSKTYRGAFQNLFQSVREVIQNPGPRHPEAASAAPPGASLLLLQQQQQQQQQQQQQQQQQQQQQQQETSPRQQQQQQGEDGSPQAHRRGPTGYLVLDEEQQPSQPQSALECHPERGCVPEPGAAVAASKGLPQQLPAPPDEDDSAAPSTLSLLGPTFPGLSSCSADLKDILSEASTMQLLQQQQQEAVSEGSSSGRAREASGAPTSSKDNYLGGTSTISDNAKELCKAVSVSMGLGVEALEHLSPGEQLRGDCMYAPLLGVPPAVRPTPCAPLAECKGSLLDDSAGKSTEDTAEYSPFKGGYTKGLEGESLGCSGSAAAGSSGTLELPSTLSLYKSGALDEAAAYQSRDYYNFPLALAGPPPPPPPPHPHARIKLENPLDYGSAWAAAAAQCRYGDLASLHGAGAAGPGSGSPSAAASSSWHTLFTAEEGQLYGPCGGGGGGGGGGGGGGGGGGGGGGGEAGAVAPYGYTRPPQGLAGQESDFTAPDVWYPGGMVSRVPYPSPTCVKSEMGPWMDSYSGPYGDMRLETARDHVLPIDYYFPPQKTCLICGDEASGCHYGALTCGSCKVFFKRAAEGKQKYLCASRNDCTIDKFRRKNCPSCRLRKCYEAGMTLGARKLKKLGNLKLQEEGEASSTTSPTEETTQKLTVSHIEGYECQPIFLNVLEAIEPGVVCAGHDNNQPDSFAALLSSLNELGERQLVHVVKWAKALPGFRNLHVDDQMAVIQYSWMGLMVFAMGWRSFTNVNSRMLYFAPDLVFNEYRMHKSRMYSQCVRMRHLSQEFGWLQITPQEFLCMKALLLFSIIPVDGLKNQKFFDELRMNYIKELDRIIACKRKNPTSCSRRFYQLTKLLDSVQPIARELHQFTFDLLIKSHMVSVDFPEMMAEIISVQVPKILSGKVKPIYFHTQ
# [6] = test system: LNCaP human prostatic cancer cell line; test: Androgen-dependent growth of LNCaP cells
# Method: The ability of various inhibitors to reverse the stimulatory effect of testosterone on the growth of the LNCaP human prostatic cancer cell line was tested by comparing cell number in wells treated for 9 days with either drug vehicle only (control), 0.1 nM testosterone only, or 0.1 nM testosterone with inhibitor at 0.3, 1, 2.5, or 5 μM.
# [7] = target: T2, human 17α-hydroxylase/C17,20-lyase (Homo sapiens, UniProt P05093); test: Inhibition of human testicular 17α-hydroxylase/C17,20-lyase (enzyme complex as a whole); type: biochemical; details: for inhibition of 17α-hydroxylase/C17,20-lyase (in words): NI = no inhibition
# T2 construct: incubating human testicular microsomes; from tissue; host or cells: human testis, microsomes
# T2 sequence (P05093 1-508): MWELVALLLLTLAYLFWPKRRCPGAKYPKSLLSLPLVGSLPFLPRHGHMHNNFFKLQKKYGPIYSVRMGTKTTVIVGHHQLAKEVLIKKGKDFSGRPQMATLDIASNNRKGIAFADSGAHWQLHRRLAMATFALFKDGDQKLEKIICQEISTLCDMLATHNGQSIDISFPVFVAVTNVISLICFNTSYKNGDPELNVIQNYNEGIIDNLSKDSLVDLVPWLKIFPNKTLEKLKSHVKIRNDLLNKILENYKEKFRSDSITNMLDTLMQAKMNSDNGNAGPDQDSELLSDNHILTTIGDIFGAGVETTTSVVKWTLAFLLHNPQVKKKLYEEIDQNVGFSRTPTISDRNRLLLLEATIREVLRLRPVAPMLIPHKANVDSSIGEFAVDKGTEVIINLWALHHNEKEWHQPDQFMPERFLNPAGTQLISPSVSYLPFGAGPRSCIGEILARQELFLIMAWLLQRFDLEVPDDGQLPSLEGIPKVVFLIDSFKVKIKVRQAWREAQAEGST
# Summary of the method: as §1
# [8] = target: T3, Human Testicular C17,20-lyase (Homo sapiens, UniProt P05093); test: Inhibition of human testicular C17,20-lyase (pregnenolone substrate, testicular microsomes); type: biochemical
# T3 construct: incubating human testicular microsomes; from tissue; host or cells: human testis, microsomes
# T3 sequence (P05093 1-508): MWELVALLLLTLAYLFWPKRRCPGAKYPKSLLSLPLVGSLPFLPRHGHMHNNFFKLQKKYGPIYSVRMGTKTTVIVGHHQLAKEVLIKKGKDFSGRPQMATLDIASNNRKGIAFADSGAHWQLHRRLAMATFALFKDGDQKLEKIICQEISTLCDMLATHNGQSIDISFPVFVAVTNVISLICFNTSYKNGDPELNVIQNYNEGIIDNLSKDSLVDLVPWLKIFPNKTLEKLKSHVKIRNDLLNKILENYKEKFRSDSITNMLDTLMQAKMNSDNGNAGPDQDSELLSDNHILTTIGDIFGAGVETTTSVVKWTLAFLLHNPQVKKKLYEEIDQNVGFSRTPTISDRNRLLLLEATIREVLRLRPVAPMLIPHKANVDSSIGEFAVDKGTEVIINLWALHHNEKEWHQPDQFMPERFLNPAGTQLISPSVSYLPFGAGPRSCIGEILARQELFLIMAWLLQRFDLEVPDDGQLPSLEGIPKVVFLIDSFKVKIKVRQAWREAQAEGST
# Summary of the method: as §1
# [9] = test system: adrenal 17α-hydroxylase/C17,20-lyase; test: Inhibition of adrenal 17α-hydroxylase/C17,20-lyase; type: biochemical; details: guinea pig adrenal
# normal male rats = test: In vivo studies in normal male rats: hormone levels; parameters: species or system rat; details: rat
# Description: (§2) Studies in normal male rats have been carried out with 4-pregnen-3-one-20β-carboxaldehyde (I-16) (Li et al., 1992) and with its 20-carboxaldoxime (I-23)(Li et al., 1995).
# [10] = test system: rat 17α-hydroxylase/C17,20-lyase; test: Inhibition of rat 17α-hydroxylase/C17,20-lyase; type: biochemical
# Description: as §2
# [11] = target: T4, Human Prostatic 5α-Reductase (Homo sapiens, UniProt P31213); test: Inhibition of human prostatic 5α-reductase (prostatic microsomes, [3H]testosterone); details: for inhibition at 0.01 µM: read-out: % Inhibition of 5α-reductase, [I] 10 nM; for inhibition at 0.1 µM: read-out: % Inhibition of 5α-reductase, [I] 100 nM
# T4 sequence (P31213 1-254): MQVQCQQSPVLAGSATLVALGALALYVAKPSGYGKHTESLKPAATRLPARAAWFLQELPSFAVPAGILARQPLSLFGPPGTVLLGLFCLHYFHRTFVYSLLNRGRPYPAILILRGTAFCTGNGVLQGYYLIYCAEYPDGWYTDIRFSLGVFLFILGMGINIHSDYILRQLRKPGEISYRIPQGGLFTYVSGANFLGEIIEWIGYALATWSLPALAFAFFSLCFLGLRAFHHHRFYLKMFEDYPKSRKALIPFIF
# adrenal C17,20-lyase = test: Inhibition of adrenal C17,20-lyase; type: biochemical; details: guinea pig adrenal
# Method: (§3) These studies were carried out using guinea pig adrenals. In contrast to the rat, the guinea pig synthesizes cortisol, like the human. […] I-5 and I-7 were of interest, as they had relatively little (4%) or no effect on the adrenal 17α-hydroxylase required for cortisol synthesis but had moderately strong effects on the C17,20 -lyase causing reduction in adrenal androgen synthesis (77% and 63%, respectively).
# adrenal 17α-hydroxylase = test: Inhibition of adrenal 17α-hydroxylase; type: biochemical; details: guinea pig adrenal; 17α-hydroxylase required for cortisol synthesis
# Method: as §3
smiles,measurement,setting,value
"C[C@]12CC[C@H]3[C@@H](CC=C4C[C@@H](O)CC[C@@]43C)[C@@H]1CC[C@@H]2c1c[nH]cn1 [Compound I-47, 17β-(4'-imidazolyl)-androst-5-en-3β-ol]",IC50,"[1]; Table 1, NI = no inhibition, read-out: IC50 17α-OHase",25 nM
same,IC50,"[1]; Table 3, first figure of 17α-hydroxylase/lyase pair, read-out: IC50 17α-hydroxylase",25.2 nM
same,IC50,"[1]; first figure of pair, read-out: IC50 17α-hydroxylase",11 nM
same,"total tumor volume (% of initial volume), 5 weeks","[2]; five weeks, 4 mice per group, control 884.0%, FIG. 2",525.8%
same,"mean tumor weight, 5-week experiment","[2]; five weeks, control 1310.5±1125.9 mg, I-49 p<0.05 vs control",607.0 ± 142.4 mg
same,"reversal of DHT-stimulated DNA synthesis (in words), 1 μM",[3]; DHT 10 nM,almost completely reversed
same,"reversal of testosterone-stimulated DNA synthesis (in words), 1 μM","[3]; testosterone 1 μM, FIG. 1",almost complete reversal
same,agonism/antagonism at mutant AR of LNCaP cells (in words),[4],antagonist; also recorded: not an agonist of the mutant receptor
same,antagonism of wild-type AR (in words),[5],dose-dependent antagonism
same,reversal of DHT-stimulated LNCaP growth (in words),[6]; 0.03 nM DHT,dose-dependent reversal
same,reversal of DHT-stimulated LNCaP growth at 5 μM (in words),"[6]; 0.03 nM DHT, inhibitor 5 μM",nearly complete reversal
same,reversal of testosterone-stimulated LNCaP growth at 5 μM (in words),"[6]; 0.1 nM testosterone, inhibitor 5 μM",almost completely reversed
same,reversal of testosterone-stimulated LNCaP growth (in words),"[6]; 0.1 nM testosterone, inhibitor 0.3-5 μM, 9 days",dose-dependent reversal
same,IC50,"[6]; Homo sapiens, LNCaP, 216 h, read-out: concentration reducing the stimulatory effect of testosterone by 50%",≤ 1000 nM
same,"inhibition of 17α-hydroxylase/C17,20-lyase (in words)",[7],potent inhibitors
same,times more potent than ketoconazole,[7]; vs ketoconazole,10-50 times
same,IC50,"[8]; Table 1, NI = no inhibition, CI = complete inhibition, read-out: IC50 C17,20 lyase",23 nM
same,IC50,"[8]; Table 3, second figure of pair, CI = complete inhibition, read-out: IC50 lyase",22.6 nM
same,IC50,"[8]; second figure of pair, read-out: IC50 C17,20-lyase",7 nM
same,effect on adrenal enzyme (in words),[9],very little effect
"C[C@H](C=O)[C@H]1CC[C@H]2[C@@H]3CCC4=CC(=O)CC[C@]4(C)[C@H]3CC[C@]12C [Compound I-16, 4-pregnen-3-one-20β-carboxaldehyde]","total tumor volume (% of initial volume), 3 weeks","[2]; 1 mg/mouse/day s.c., 3 weeks, two mice, control 281%",173.6%
same,"mean tumor weight, 3-week experiment","[2]; 1 mg/mouse/day s.c., control 386.3±147.2 mg",198.78 ± 72 mg
same,agonism/antagonism at mutant AR of LNCaP cells (in words),[4],agonists
same,antagonism of wild-type AR (in words),[5],dose-dependent antagonism
same,"reduction of testosterone and DHT levels in serum, testicular and prostatic tissues (in words)",normal male rats,significantly reducing testosterone and DHT levels
same,"inhibition of 17α-hydroxylase/C17,20-lyase (in words)",[7],significant inhibition
same,"inhibition of rat 17α-hydroxylase/C17,20-lyase (in words)",[10],"inhibit rat 17α-hydroxylase/C17,20 -lyase"
same,inhibition at 0.01 µM,[11],20.5%
same,inhibition at 0.1 µM,[11],87.2%
"CC(=NO)C1=CC[C@H]2[C@@H]3CC=C4C[C@@H](O)CC[C@]4(C)[C@H]3CC[C@]12C [Compound I-5, 16-dehydropregnenolone-20-oxime]","reduction in adrenal androgen synthesis (C17,20-lyase)","adrenal C17,20-lyase",77%
same,IC50,[1]; IC50 17α-OHase,16 nM
same,effect on adrenal 17α-hydroxylase,adrenal 17α-hydroxylase,4%
same,"inhibition of 17α-hydroxylase/C17,20-lyase (in words)",[7],potent inhibition
same,fold more potent inhibition than 20-oxime (I-1),[7]; vs I-1,35 fold
same,IC50,"[8]; IC50 C17,20 lyase",16 nM
same,inhibition at 0.01 µM,[11],0%
same,inhibition at 0.1 µM,[11],5.92%
